Series [1] is described as follows: LD50 acute toxicity, ddy mice, single abdominal injection. The settings on record: mouse, in vivo, ip, 5 ddy mice, 14 days observation, Behrens-Koerber's method. The source says: (§1) As used herein, the term "LD50 " denotes the acute toxicity. The term "ED50 " denotes the administered amount needed for reducing the volume of Sarcoma 180 solid tumours in animals to 50% of the corresponding tumour volume in control (untreated) animals. The term "WBC4000 " denotes the minimum dose of the drug needed to reduce the number of peripheral leucocytes to 4000/mm^3. A greater TI value results in a broader tolerance to the drug, which is advantageous for higher anti-tumour activity and decreased toxicity. The term "T" used herein denotes the average survival days of the test animals administered with the test compound. The term "C" denotes the average survival days of the control (untreated) animals. The term "OPD" denotes the dose of the drug resulting in the highest survival ratio. The term "ILS30 " denotes a 30% increase of life-span.
LD50, ED50 and WBC4000 were respectively determined as follows:
Each animal of the test group, consisting of 5 ddy mice, was administered once with a test compound by abdominal injection. […] To determine the LD50 value, Behrens-Koerber's method was applied.

In a further series the test system is Sarcoma 180 solid tumour. Description: ED50 against Sarcoma 180 solid tumour implanted in mice. It is filed as in vivo, male mouse (ddy strain). The settings on record: for (CI)c: (CI of test compound)/(CI of mitomycin C), CI = LD50/ED50; for ED50: Mus musculus, Sarcoma-180, iv, 168 h, i.v. (tail vein) 24 h after implantation, tumour volume at 7 days, dose for T/C of 0.5.
Description: With regard to the so-called chemotherapeutic index viz. the CI value against sarcoma 180 solid tumour, expressed by the formula: […]
as §1
the term (CI)c denotes (CI of the test compound)/(CI of mitomycin C), and
5×10^6 sarcoma 180 solid tumor cells were abdominally implanted into ddy mice. 7 days after this, ascites cells were sampled. The cells were washed once with a sterilized physiological saline and were used to prepare a cell suspension containing 5×10^7 cells per ml of a sterilized physiological saline. On each occasion, 0.1 ml of the cell suspension was subcutaneously implanted under the skin of the right armpit of a male mouse (ddy strain; body weight 20±2 g). The test compound which was dissolved in a physiological saline with or without addition of Tween 80 was injected into the tail vein of each animal of a group consisting of 5 mice at a dose of 0.1-0.2 ml 24 hours after the implantation of the tumor cells.
The anti-tumor activity was determined in the following manner:
7 days after the implantation, the major axis (a) and the minor axis (b) of the tumour were measured to calculate a value of (a×b^2)/2 which corresponds to the volume of the tumour. The antitumour activity was expressed by the ratio of the volume of the tumour (T) of the group of animals administered with the test compound to the corresponding volume of tumours (C) of the untreated animals.
On graph paper, T/C was plotted on the ordinate using an arithmetic scale and the administered amount of test compound was plotted on the abscissa using a logarithmic scale. The relationship between the dose and T/C was shown by a straight line determined by the method of least squares, from which ED50 viz. a dose corresponding to T/C of 0.5 was obtained.

The test system of series [2] is lymphocytic Leukemia P-388. Kind of series: Anti-tumour activity against lymphocytic Leukemia P-388 in mice. It is filed as in vivo, mouse, female of CDF strain.
Description: Also, their therapeutic indexes, expressed by the formula:
TI=(OPD)/(dose which results in ILS30),
against lymphocytic Leukemia P-388 and the maximum increased life spans (ILSmax), defined by the formula: […]
as §1
The experiment was carried out in the following manner. 1×10^6 lymphocytic Leukemia P-388 tumour cells were abdominally implanted into each mouse of a group consisting of 5 mice (body weight about 22 g; female of CDF strain). 24 hours after implantation, a physiological saline solution (0.2 ml) containing the test compound with or without addition of Tween 80 was abdominally given to the test animal.
Table 7 indicates anti-tumour activities of selected Compounds (I) against lyphocytic Leukemia P-388.

The values below come from patent US4863935A, “Mitomycin compounds having useful anti-tumor activity” (priority 1986, dated 1989).

On to `CO[C@@]12[C@H](COC(N)=O)C3=C(C(=O)C(C)=C(NCCSCOC(=O)NCCC(=O)OC(C)(C)C)C3=O)N1C[C@@H]1N[C@@H]12` [Compound 2, 7-N--[2-(2-t-butoxycarbonylethyl)aminocarbonyloxymethylthioethyl]mitomycin C], for which the LD50 at 336 h in series [1] turned out to be 45 mg/kg. Further, in the series with Sarcoma 180 solid tumour, the “(CI)c” value is 1.44 and the ED50 amounted to 11.2 mg/kg.

As to `CO[C@@]12[C@H](COC(N)=O)C3=C(C(=O)C(C)=C(NCCSC(=O)N4CCC(Cc5ccccc5)CC4)C3=O)N1C[C@@H]1N[C@@H]12` [Compound 41, 7-N--[2-(4-benzylpiperidino)carbonylthioethyl]mitomycin C], the LD50 at 336 h in series [1] turned out to be 41.3 mg/kg. Also, in the series with Sarcoma 180 solid tumour, the “(CI)c” value turned out to be 1.37 and the ED50 was 13.7 mg/kg.

In series [1], `CO[C@@]12[C@H](COC(N)=O)C3=C(C(=O)C(C)=C(NCCSC(=O)N4CCC[C@H]4C(=O)N(C)C)C3=O)N1C[C@@H]1N[C@@H]12` [Compound 18, 7-N--[2-((S)--2-dimethylaminocarbonylpyrrolidino)carbonylthioethyl]mitomycin C] yielded an LD50 at 336 h of 97.5 mg/kg. Besides, in the series on Sarcoma 180 solid tumour, the “(CI)c” value turned out to be 3.02 and it took a dose of 12.3 mg/kg to reach the 50% effect level (ED50).

In series [1], `CO[C@@]12[C@H](COC(N)=O)C3=C(C(=O)C(C)=C(NCCSC(=O)N4CCC[C@H]4C(=O)OCc4ccccc4)C3=O)N1C[C@@H]1N[C@@H]12` [Compound 16, 7-N--[2-((S)--2-benzyloxycarbonylpyrrolidino)-carbonylthioethyl]mitomycin C] gave an LD50 at 336 h greater than 100 mg/kg. Moreover, in the series on Sarcoma 180 solid tumour, the “(CI)c” value is greater than 0.45 and the 50% effect level (ED50) was put at a dose of 84.4 mg/kg.

On to `CO[C@@]12[C@H](COC(N)=O)C3=C(C(=O)C(C)=C(NCCSC(=O)N(C)C)C3=O)N1C[C@@H]1N[C@@H]12` [Compound 8, 7-N--(2-dimethylaminocarbonylthioethyl)mitomycin C], for which the LD50 at 336 h in series [1] was 26.3 mg/kg. Further, in the series on Sarcoma 180 solid tumour, the “(CI)c” value worked out at 0.65 and the 50% effect level (ED50) was put at a dose of 14.4 mg/kg.

For `CO[C@@]12[C@H](COC(N)=O)C3=C(C(=O)C(C)=C(NCCSC(=S)NC4CCCCC4)C3=O)N1C[C@@H]1N[C@@H]12` [Compound 37, 7-N--(2-cyclohexylaminothiocarbonylthioethyl)mitomycin C], the LD50 at 336 h in series [1] was 41.3 mg/kg. In the series on Sarcoma 180 solid tumour, the “(CI)c” value stood at 0.73 and the median effective dose (ED50) was found to be 23.5 mg/kg.

In series [1], `CO[C@@]12[C@H](COC(N)=O)C3=C(C(=O)C(C)=C(NCCSC(=O)NC(CO)C(C)C)C3=O)N1C[C@@H]1N[C@@H]12` (stereo partly shown) [Compound 48, 7-N--[2-(1-hydroxymethyl-2-methylpropyl)aminocarbonylthioethyl]mitomycin C] yielded an LD50 at 336 h of 45 mg/kg. Besides, in the series on Sarcoma 180 solid tumour, the “(CI)c” value worked out at 1.39 and the 50% effect level (ED50) was put at a dose of 14.3 mg/kg.

Take `CNC(=O)[C@@H]1CCCN1C(=O)SCCNC1=C(C)C(=O)C2=C(C1=O)[C@@H](COC(N)=O)[C@@]1(OC)[C@H]3N[C@H]3CN21` [Compound 17, 7-N--[2-((S)--2-methylaminocarbonylpyrrolidino)-carbonylthioethyl]mitomycin C]: the 50% lethal dose (LD50) at 336 h in series [1] was 75 mg/kg. Also, in the series with Sarcoma 180 solid tumour, the “(CI)c” value is on record as 1.32 and the 50% effect level (ED50) was put at a dose of 21.7 mg/kg.

As to `CO[C@@]12[C@H](COC(N)=O)C3=C(C(=O)C(C)=C(NCCSC(=O)N(C)NC=O)C3=O)N1C[C@@H]1N[C@@H]12` [Compound 35, 7-N--[2-(1-methyl-2-formylhydrazino)carbonylthioethyl]mitomycin C], the LD50 at 336 h in series [1] turned out to be 105 mg/kg. In the series with Sarcoma 180 solid tumour, the “(CI)c” value is 1.30 and the ED50 is 27.9 mg/kg.

In turn, `CO[C@@]12[C@H](COC(N)=O)C3=C(C(=O)C(C)=C(NCCSC(=O)NC(CC(=O)OCc4ccccc4)c4ccccc4)C3=O)N1C[C@@H]1N[C@@H]12` (stereo partly shown) [Compound 10, 7-N--[2-(1-phenyl-2-benzyloxycarbonylethyl)aminocarbonylthioethyl]mitomycin C] displayed a 50% lethal dose (LD50) at 336 h in series [1] greater than 100 mg/kg. For the same compound, in the series with Sarcoma 180 solid tumour, the “(CI)c” value is greater than 0.43 and it took a dose of 95.5 mg/kg to reach the 50% effect level (ED50).

Regarding `CO[C@@]12[C@H](COC(N)=O)C3=C(C(=O)C(C)=C(NCCSC(=O)N4CCC[C@H]4C(=O)Nc4ccc(O)cc4)C3=O)N1C[C@@H]1N[C@@H]12` [Compound 45, 7-N--{2-[(S)--2-(4-hydroxyanilino)carbonylpiperidino]carbonylthioethyl}mitomycin C], the LD50 at 336 h in series [1] was greater than 100 mg/kg. Also, in the series on Sarcoma 180 solid tumour, the “(CI)c” value is listed as greater than 0.51 and the 50% effect level (ED50) was put at a dose of 89.1 mg/kg.

Compound `COC(=O)[C@@H]1CC(O)CN1C(=O)SCCNC1=C(C)C(=O)C2=C(C1=O)[C@@H](COC(N)=O)[C@@]1(OC)[C@H]3N[C@H]3CN21` (stereo partly drawn) [Compound 44, 7-N--[2-((S)--2-methoxycarbonyl-(SR)-4-hydroxypyrrolidino)carbonylthioethyl]mitomycin C] displayed an LD50 at 336 h in series [1] greater than 100 mg/kg. In the series with Sarcoma 180 solid tumour, the “(CI)c” value was greater than 1.85 and the ED50 turned out to be 27.5 mg/kg.

In series [1], `CO[C@@]12[C@H](COC(N)=O)C3=C(C(=O)C(C)=C(NCCSC(=O)NCCC(=O)OCc4ccccc4)C3=O)N1C[C@@H]1N[C@@H]12` [Compound 3, 7-N--[2-(2-benzyloxycarbonylethyl)aminocarbonylthioethyl]mitomycin C] showed an LD50 at 336 h greater than 100 mg/kg. Further, in the series with Sarcoma 180 solid tumour, the “(CI)c” value is greater than 0.89 and the median effective dose (ED50) worked out at 39.6 mg/kg.

As for `CO[C@@]12[C@H](COC(N)=O)C3=C(C(=O)C(C)=C(NCCSC(=O)NCCc4ccccn4)C3=O)N1C[C@@H]1N[C@@H]12` [Compound 49, 7-N--[2-{2-(2-pyridyl)ethyl}aminocarbonylthioethyl]mitomycin C], the 50% lethal dose (LD50) at 336 h in series [1] was 75 mg/kg. In the series with Sarcoma 180 solid tumour, the “(CI)c” value is listed as 1.57 and the 50% effect level (ED50) was put at a dose of 22.8 mg/kg.

The compound `CO[C@@]12[C@H](COC(N)=O)C3=C(C(=O)C(C)=C(NCCSC(=O)N4CCC(O)CC4)C3=O)N1C[C@@H]1N[C@@H]12` [Compound 43, 7-N--[2-(4-hydroxypiperidino)carbonylthioethyl]mitomycin C] came in with an LD50 at 336 h in series [1] of 52.5 mg/kg. In the series with Sarcoma 180 solid tumour, the “(CI)c” value is given as 2.17 and the 50% effect level (ED50) was put at a dose of 9.15 mg/kg.

Turning to `CO[C@@]12[C@H](COC(N)=O)C3=C(C(=O)C(C)=C(NCCSC(=O)NC(C(C)C)C(C)C)C3=O)N1C[C@@H]1N[C@@H]12` [Compound 46, 7-N--[2-(1-isopropyl-2-methylpropyl)aminocarbonylthioethyl]mitomycin C], the LD50 at 336 h in series [1] stood at 37.5 mg/kg. Moreover, in the series on Sarcoma 180 solid tumour, the “(CI)c” value was 1.27 and it took a dose of 12.5 mg/kg to reach the 50% effect level (ED50).

Regarding `CO[C@@]12[C@H](COC(N)=O)C3=C(C(=O)C(C)=C(NCCSC(=S)NC(c4ccccc4)c4ccccc4)C3=O)N1C[C@@H]1N[C@@H]12` [Compound 50], the “(ILSmax)c” value in series [2] ((ILSmax of test compound)/(ILSmax of mitomycin C), ILS=(T-C)/C×100) is reported as greater than 2.39. For the same compound, the “(TI)c” value in series [2] ((TI of test compound)/(TI of mitomycin C), TI = OPD/dose which results in ILS30) was 1.10. In addition, in series [2] (Mus musculus, P388, ip, dose resulting in the highest survival ratio, i.p. 24 h after implantation, 30 days, read-out: OPD), the ED (optimal dose, highest survival) worked out at 12.5 mg/kg. For the same compound, the ED (30% increase of life-span) in series [2] (Mus musculus, P388, ip, 30% increase of life-span, i.p. 24 h after implantation, read-out: Dose needed to give ILS30) came to 0.74 mg/kg.

Take `CCCNC(=S)SCCNC1=C(C)C(=O)C2=C(C1=O)[C@@H](COC(N)=O)[C@@]1(OC)[C@H]3N[C@H]3CN21` [Compound 40, 7-N--(2-n-propylaminothiocarbonylthioethyl)mitomycin C]: in series [1], the median lethal dose (LD50) at 336 h is greater than 25 mg/kg. Besides, in the series on Sarcoma 180 solid tumour, the “(CI)c” value is given as greater than 1.03 and the ED50 came out at 10.1 mg/kg.

`CC1=C(NCCSC(=S)NC2CCCCC2)C(=O)C2=C(C1=O)N1C[C@H]3[C@H](N3C)[C@]1(O)[C@H]2COC(N)=O` (stereo partly shown) [Compound 38, 7-N--(2-cyclohexylaminothiocarbonylthioethyl)mitomycin D] had a median lethal dose (LD50) at 336 h in series [1] of 75 mg/kg. Further, in the series with Sarcoma 180 solid tumour, the “(CI)c” value is given as 0.79 and the 50% effect level (ED50) was put at a dose of 39.5 mg/kg.

For orientation: LD50 means the dose at which mortality reaches 50%. Broadly, the ED50 is the dose that gives a 50% effect, or the effect in half of the subjects.
